# Test results taken from patent US20250129121A1, “POLYPEPTIDE, PRODUCT INCLUDING POLYPEPTIDE FOR INHIBITING FUSOBACTERIUM NUCLEATUM, OR DRUG FOR PREVENTING COLORECTAL CANCER” (priority 2022, published 2025).
# Where a SMILES comes first, the peptide text is derived from it.
# What was measured:
# other strains = assay: Antimicrobial activity against strains other than F. nucleatum (bactericidal specificity); assay type: cell-based; conditions: test strains other than F. nucleatum
# Procedure: (§1) A. Each polypeptide was prepared into a specified stock solution for later use. Minimum inhibitory concentrations (MICs) of the polypeptides P1 to P12 were determined by a broth microdilution method. With 0.01% acetic acid (including 0.2% of bovine serum albumin (BSA)) as a diluent, a series of gradient antimicrobial peptide solutions were prepared by a two-fold dilution method.
# (§2) B. 100 μL of each polypeptide stock solution was taken and added to a 96-well cell culture plate, and then each strain solution to be tested (about 10^5/mL) was added in an equal volume to each well. A positive control (including a strain solution, but not including a polypeptide) and a negative control (including neither a strain solution nor a polypeptide). Strains to be tested include Escherichia coli Nissile 1917, Vibrio cholerae H1, Pseudomonas aeruginosa PAO1, F. nucleatum 25586, F. nucleatum 10953, Bifidobacterium uniformis 6597, Lactobacillus acidophilus 6075, Bifidobacterium longum 6194Lactobacillus rhamnosus 6141, and Streptococcus agalactiae H94.
# (§3) C. The cell culture plate was incubated at a constant temperature of 37° C. for 20 h, and MIC was recorded when the turbidity was not observed by naked eyes at a bottom of a well. The strains all were purchased from the market.
# [1] = tested on: Lactobacillus rhamnosus 6141; assay type: cell-based; conditions: 20 h
# Procedure: as §1, §2, §3
# [2] = tested on: Streptococcus agalactiae H94; assay type: cell-based; conditions: H94, 20 h
# Procedure: as §1, §2, §3
# [3] = tested on: Bifidobacterium longum 6194; assay type: cell-based; conditions: 20 h
# Procedure: as §1, §2, §3
# [4] = tested on: Escherichia coli Nissile 1917; assay type: cell-based; conditions: Nissile 1917, 20 h
# Procedure: as §1, §2, §3
# [5] = tested on: Pseudomonas aeruginosa PAO1; assay type: cell-based; conditions: PAO1, 20 h
# Procedure: as §1, §2, §3
# [6] = tested on: Lactobacillus acidophilus 6075; assay type: cell-based; conditions: 20 h
# Procedure: as §1, §2, §3
# [7] = tested on: Bifidobacterium uniformis 6597; assay type: cell-based; conditions: 20 h
# Procedure: as §1, §2, §3
# [8] = tested on: F. nucleatum-induced colorectal cancer; assay: F. nucleatum-enhanced colorectal cancer animal model; assay type: in vivo, C57BL APC^min mouse; conditions: 20 mg/kg per day intragastrically for 7 d, compared with Fn+H2O group
# Excerpt: A. To verify the antibacterial effects of the F. nucleatum-specific antimicrobial peptides in vivo for F. nucleatum and especially the preventive effects of the F. nucleatum-specific antimicrobial peptides for F. nucleatum-induced diseases, an F. nucleatum-enhanced colorectal cancer animal model (i.e. the C57BL APC^min mouse orally administered with F. nucleatum) was adopted in this example. As shown in FIG. 20: C57BL APC^min mice were selected and intragastrically administered with F. nucleatum 25586 three times a week as an F. nucleatum intragastric administration group. Mice in a control group were intragastrically administered with an equal amount of PBS every week (PBS intragastric administration group). On the second day of intragastric administration in the first week, mice each were treated with 2.5% dextran sulfate sodium (DSS) consecutively for 3 d to improve the colonization of F. nucleatum. B. Mice were intragastrically administered with the antimicrobial peptide P8 or P11 for treatment in the sixth week, and mice in the control group were intragastrically administered with pure water. Each mouse was intragastrically administered at 20 mg/kg per day consecutively for 7 d. Then, mice were euthanized, and the tumor number and size were recorded.
# F. nucleatum 25586 = assay type: cell-based, Fusobacterium nucleatum; conditions: 25586, 20 h
# Procedure: as §1, §2, §3
# F. nucleatum 10953 = assay type: cell-based, Fusobacterium nucleatum; conditions: 10953, 20 h
# Procedure: as §1, §2, §3
smiles,measurement,setting,value
"N=C(N)NCCC[C@H](NC(=O)CNC(=O)[C@@H]1CCCN1C(=O)[C@H](CCCNC(=N)N)NC(=O)[C@H](Cc1c[nH]c2ccccc12)NC(=O)[C@H](Cc1c[nH]cn1)NC(=O)[C@H](Cc1c[nH]c2ccccc12)NC(=O)[C@H](CCCNC(=N)N)NC(=O)[C@H](Cc1c[nH]c2ccccc12)NC(=O)[C@H](Cc1c[nH]cn1)NC(=O)[C@@H](N)Cc1c[nH]c2ccccc12)C(=O)N[C@@H](Cc1c[nH]c2ccccc12)C(=O)N[C@@H](Cc1c[nH]cn1)C(=O)N[C@@H](Cc1c[nH]c2ccccc12)C(=O)N[C@@H](CCCNC(=N)N)C(=O)N[C@@H](Cc1c[nH]c2ccccc12)C(=O)N[C@@H](Cc1c[nH]cn1)C(=O)N[C@@H](Cc1c[nH]c2ccccc12)C(=O)O [P8, WHWRWHWRPGRWHWRWHW] (H-WHWRWHWRPGRWHWRWHW-OH; N-terminus assumed)",antimicrobial activity against other strains,other strains,weak antimicrobial activity
same,MIC Lactobacterium rhamnosus 6141,[1],>64 µM
same,MIC Streptococcus agalactiae H94,[2],>64 µM
same,MIC Bifidobacterium longum 6194,[3],>64 µM
same,MIC Escherichia coli nissile1917,[4],>64 µM
same,MIC Pseudomonas aeruginosa PAO1,[5],>64 µM
same,MIC Lactobacillus acidophilus 6075,[6],32 µM
same,MIC Bifidobacteriu muniformis 6597,[7],>64 µM
same,tumor diameter,[8],relatively small
same,tumor number,[8],relatively small
same,MIC Fusobacterium nucleatum 25586,F. nucleatum 25586,8 µM
same,MIC Fusobacterium nucleatum 10953,F. nucleatum 10953,4 µM
N=C(N)NCCC[C@H](NC(=O)CNC(=O)[C@@H]1CCCN1C(=O)[C@H](CCCNC(=N)N)NC(=O)[C@H](Cc1c[nH]c2ccccc12)NC(=O)[C@H](Cc1c[nH]cn1)NC(=O)[C@H](Cc1c[nH]c2ccccc12)NC(=O)[C@H](Cc1c[nH]c2ccccc12)NC(=O)[C@H](Cc1c[nH]cn1)NC(=O)[C@H](Cc1c[nH]c2ccccc12)NC(=O)[C@H](CCCNC(=N)N)NC(=O)CNC(=O)[C@@H]1CCCN1C(=O)[C@H](CCCNC(=N)N)NC(=O)[C@H](Cc1c[nH]c2ccccc12)NC(=O)[C@H](Cc1c[nH]cn1)NC(=O)[C@@H](N)Cc1c[nH]c2ccccc12)C(=O)N[C@@H](Cc1c[nH]c2ccccc12)C(=O)N[C@@H](Cc1c[nH]cn1)C(=O)N[C@@H](Cc1c[nH]c2ccccc12)C(=O)O [P9] (H-WHWRPGRWHWWHWRPGRWHW-OH; N-terminus assumed),MIC Lactobacterium rhamnosus 6141,[1],>64 µM
same,MIC Streptococcus agalactiae H94,[2],>64 µM
same,MIC Bifidobacterium longum 6194,[3],64 µM
same,MIC Escherichia coli nissile1917,[4],>64 µM
same,MIC Pseudomonas aeruginosa PAO1,[5],>64 µM
same,MIC Lactobacillus acidophilus 6075,[6],64 µM
same,MIC Bifidobacteriu muniformis 6597,[7],>64 µM
same,MIC Fusobacterium nucleatum 25586,F. nucleatum 25586,64 µM
same,MIC Fusobacterium nucleatum 10953,F. nucleatum 10953,64 µM
"N=C(N)NCCC[C@H](NC(=O)CNC(=O)[C@@H]1CCCN1C(=O)[C@H](CCCNC(=N)N)NC(=O)[C@H](Cc1c[nH]c2ccccc12)NC(=O)[C@H](CCCCN)NC(=O)[C@@H](N)Cc1c[nH]c2ccccc12)C(=O)N[C@@H](Cc1c[nH]c2ccccc12)C(=O)N[C@@H](CCCCN)C(=O)N[C@@H](Cc1c[nH]c2ccccc12)C(=O)O [P10, WKWRPGRWKW] (H-WKWRPGRWKW-OH; N-terminus assumed)",MIC Lactobacterium rhamnosus 6141,[1],>64 µM
same,MIC Streptococcus agalactiae H94,[2],>64 µM
same,MIC Bifidobacterium longum 6194,[3],>64 µM
same,MIC Escherichia coli nissile1917,[4],64 µM
same,MIC Pseudomonas aeruginosa PAO1,[5],>64 µM
same,MIC Lactobacillus acidophilus 6075,[6],64 µM
same,MIC Bifidobacteriu muniformis 6597,[7],64 µM
same,MIC Fusobacterium nucleatum 25586,F. nucleatum 25586,8 µM
same,MIC Fusobacterium nucleatum 10953,F. nucleatum 10953,16 µM
"N=C(N)NCCC[C@H](NC(=O)CNC(=O)[C@@H]1CCCN1C(=O)[C@H](CCCNC(=N)N)NC(=O)[C@H](Cc1c[nH]c2ccccc12)NC(=O)[C@H](CCCCN)NC(=O)[C@H](Cc1c[nH]c2ccccc12)NC(=O)[C@H](CCCNC(=N)N)NC(=O)[C@H](Cc1c[nH]c2ccccc12)NC(=O)[C@H](CCCCN)NC(=O)[C@@H](N)Cc1c[nH]c2ccccc12)C(=O)N[C@@H](Cc1c[nH]c2ccccc12)C(=O)N[C@@H](CCCCN)C(=O)N[C@@H](Cc1c[nH]c2ccccc12)C(=O)N[C@@H](CCCNC(=N)N)C(=O)N[C@@H](Cc1c[nH]c2ccccc12)C(=O)N[C@@H](CCCCN)C(=O)N[C@@H](Cc1c[nH]c2ccccc12)C(=O)O [P11, WKWRWKWRPGRWKWRWKW] (H-WKWRWKWRPGRWKWRWKW-OH; N-terminus assumed)",antimicrobial activity against other strains,other strains,weak antimicrobial activity
same,MIC Lactobacterium rhamnosus 6141,[1],>64 µM
same,MIC Streptococcus agalactiae H94,[2],64 µM
same,MIC Bifidobacterium longum 6194,[3],16 µM
same,MIC Escherichia coli nissile1917,[4],64 µM
same,MIC Pseudomonas aeruginosa PAO1,[5],32 µM
same,MIC Lactobacillus acidophilus 6075,[6],32 µM
same,MIC Bifidobacteriu muniformis 6597,[7],8 µM
same,tumor diameter,[8],relatively small
same,tumor number,[8],relatively small
same,MIC Fusobacterium nucleatum 25586,F. nucleatum 25586,4 µM
same,MIC Fusobacterium nucleatum 10953,F. nucleatum 10953,16 µM
N=C(N)NCCC[C@H](NC(=O)CNC(=O)[C@@H]1CCCN1C(=O)[C@H](CCCNC(=N)N)NC(=O)[C@H](Cc1c[nH]c2ccccc12)NC(=O)[C@H](CCCCN)NC(=O)[C@H](Cc1c[nH]c2ccccc12)NC(=O)[C@H](Cc1c[nH]c2ccccc12)NC(=O)[C@H](CCCCN)NC(=O)[C@H](Cc1c[nH]c2ccccc12)NC(=O)[C@H](CCCNC(=N)N)NC(=O)CNC(=O)[C@@H]1CCCN1C(=O)[C@H](CCCNC(=N)N)NC(=O)[C@H](Cc1c[nH]c2ccccc12)NC(=O)[C@H](CCCCN)NC(=O)[C@@H](N)Cc1c[nH]c2ccccc12)C(=O)N[C@@H](Cc1c[nH]c2ccccc12)C(=O)N[C@@H](CCCCN)C(=O)N[C@@H](Cc1c[nH]c2ccccc12)C(=O)O [P12] (H-WKWRPGRWKWWKWRPGRWKW-OH; N-terminus assumed),MIC Lactobacterium rhamnosus 6141,[1],>64 µM
same,MIC Streptococcus agalactiae H94,[2],2 µM
same,MIC Bifidobacterium longum 6194,[3],16 µM
same,MIC Escherichia coli nissile1917,[4],32 µM
same,MIC Pseudomonas aeruginosa PAO1,[5],32 µM
same,MIC Lactobacillus acidophilus 6075,[6],32 µM
same,MIC Bifidobacteriu muniformis 6597,[7],64 µM
same,MIC Fusobacterium nucleatum 25586,F. nucleatum 25586,2 µM
same,MIC Fusobacterium nucleatum 10953,F. nucleatum 10953,2 µM
